Laboratory results: patent US20160346255A1, “METHODS, AGENTS AND COMPOSITIONS FOR TREATMENT OF INFLAMMATORY CONDITIONS” (Betanien Hospital, priority 2014, published 2016)
Read-outs that look alike come from different tables or passages of the source. Non-standard residues stand in square brackets, D forms with d. Residues, ends and D or L forms follow the SMILES beside them. d(hArg(Et2)) = CCN=C(NCC)NCCCC[C@@H](N)C(=O)O; hArg(Et2) = CCN=C(NCC)NCCCC[C@H](N)C(=O)O; dPhe(4-Cl) = N[C@H](Cc1ccc(Cl)cc1)C(=O)O; d2Nal = N[C@H](Cc1ccc2ccccc2c1)C(=O)O; dCit = NC(=O)NCCC[C@@H](N)C(=O)O; d3Pal = N[C@H](Cc1cccnc1)C(=O)O

Columns and labels:
Patient with Lupus = assay: Lupus patient treated with degarelix (and earlier therapies); format: in vivo, human; conditions: for Reducing the pain in their extremities / Side effects: previous therapy
Protocol: Example of Treating a Patient with Lupus with a GnRH Antagonist
Due to their painful condition, they have been followed up by a pain clinic. They were offered a tricyclic antidepressant, amitriptyline 25 mg in March 2014 for their painful condition.
Therefore, we decided to offer […] degarelix. GnRH antagonists have shown anti-inflammatory effects and therefore we considered that degarelix, a depot GnRH antagonist, may have a therapeutic effect in lupus. 09.15.14, […] received […] loading dose of degarelix, 240 mg s.c.
They received their second dose of degarelix in October 2014, 80 mg s.c. They continue on 80 mg s.c. every two weeks.

Patient with Tendonitis = assay: Tendonitis patient treated with ganirelix injection; format: in vivo, human; conditions: 1.5 mg injected around the affected tendon; 2 week post injection
Protocol: • person diagnosed with tendonitis of the elbow with ultrasound confirming tendonitis.
• Treated with an injection of GnRH antagonist, ganirelix 1.5 mg, around the affected tendon.
• Before and 2 week post injection ultrasound images are taken to show a decrease in tendonitis of the elbow. […] Such injections may be administered over the long-term, for example every 3 months to maintain optimal effect.

[1] = system: Patient with Rheumatoid Arthritis; assay: Rheumatoid arthritis patient treated with ganirelix; format: in vivo, human; conditions: at 4 months
Protocol: (§1) • person with seropositive rheumatoid arthritis with disease duration of 10 years. • Fulfilled ACR 2010 classification criteria for rheumatoid arthritis.
• Had tried almost all available rheumatoid arthritis therapies available previously without effect. • Offered experimental GnRH antagonist therapy, ganirelix 0.75 mg s.c. daily (0.25 mg s.c. three times a day).
• Disease activity score (DAS) reduction from 5.5 to 2.2 (remission). • A DAS reduction of 0.6 units is defined as a clinical response to treatment (1). • […] ESR decreased from 28 mm to 19 mm, with a normalization of their CRP from 23 mg/L to 5 mg/L. This is supported by the decrease in their anti-cyclic citrullinated peptide (CCP) antibodies from 27 μ/mL to 14 μ/mL.

patients with IBD = conditions: week 2 after an infusion; cited from earlier work
[2] = system: Patient with Ankylosing Spondylitis; assay: Ankylosing spondylitis patient treated with degarelix (and earlier TNF inhibitors); format: in vivo, human; conditions: ankylosing spondylitis patient
Description: Example of Treating a Patient with Ankylosing Spondylitis with a GnRH Antagonist
Diagnosed with ankylosing spondylitis in 1984, HLAB27 positive, with repeated iridocyclitis. Used non-steroidal anti-inflammatory drugs previously. They were offered the TNFα inhibitor Golilimumab in 2010. Their disease activity score was 8.9 in October 2010 (see below for explanation of disease activity score) on initiating Golilimumab; by the June 2012 this score had reduced to 6.6, but by May 2013 the effect had worn off and their score was 7.6. May 2013, they initiated Enbrel treatment, but their disease activity increased from 7.6 to 8.3. Due to their poor response to TNFα therapy, they were offered the GnRH antagonist degarelix in September 2014.
Disease activity in ankylosing spondylitis is measured by the BASDAI (Bath Ankylosing Spondylitis Disease Activity Index (1)), which has been extensively validated in clinical trials, 2, 3 and is one of the most commonly used outcome measures in clinical trials. This is a composite index that evaluates fatigue, axial and peripheral pain, stiffness and enthesopathy. Their BASDAI was at 8.7 at baseline. In September 2014 they received their first dose of degarelix 240 mg s.c. By 2 weeks, their BASDAI had reduced to 6.8, and by 6 weeks it had reduced to 5.8. This is the lowest BASDAI score they have ever had since we first started using this method of assessment 4 years ago in 2010. Their morning stiffness lasted 4 hours at baseline, by 6 weeks their morning stiffness had reduced to 2 hours. They had their second dose of degarelix 80 mg s.c in October 2014. Lumbar flexion and maximum arm abduction were increased after 6 weeks of treatment.
Response to therapy in clinical practice is defined as improvement of 2 units or 50% on a 0-10 scale of the BASDAI, and expert opinion that the treatment should be continued. Their reduction by 6 weeks was 2.9 units, and 7.1 units with an 82% BASDAI score improvement by 9 weeks, and we shall continue treatment. A BASDAI 50% improvement is defined as a major clinical response. […] For comparison, approximately 50-60% of patients achieve a BASDAI 50 by 12 weeks on TNF inhibitors (4). Their ESR has decreased from 46 mm to 23 mm, which is their lowest ESR reading in 19 years. […] By 9 weeks of GnRH antagonist therapy, their kidney function has normalized, and fasting glucose reduced from 7.4 to 6.5 mmol/L. By 3 months, the effect on their ankylosing spondylitis remained, creatinine was at 98 μmol/L, with a glomerular filtration rate of 66 ml/min/1.73 m^2 in December 2014.

[3] = system: systemic sclerosis patients; conditions: over 12 months; increased from 7; cited from earlier work
[4] = system: patients with psoriasis who were taking lithium; conditions: 15 patients, after 10 weeks, cited from earlier work
[5] = system: Patient with Rheumatoid Arthritis; assay: Rheumatoid arthritis patient treated with cetrorelix; format: in vivo, human; conditions: at 12 weeks
Protocol: as §1
• Had tried all therapies available previously without effect. • Offered experimental GnRH antagonist therapy, cetrorelix in 0.5 mg s.c. daily in October 2014, then 0.75 mg s.c. daily in December 2014.

[6] = system: patients with active longstanding RA; assay: Double-blinded randomised study of cetrorelix in active longstanding RA (NCT00667758, AGRA); format: in vivo, human; conditions: preceding the P1NP reduction at day 10
Description: The manuscript by Kass et al., 2014 Scand. J. Rheumatol., 43 (1), 22-27, describes a short term study of a GnRH antagonist, Cetrorelix (AGRA study). This is the first human study of GnRH antagonist treatment in an inflammatory disease. […] However, some patients did show some response and the response was thought to be limited to patients with above normal levels of LH and FSH (Abstract to the 13th annual American College of Rheumatology meeting). […] However, current TNFα inhibiting therapy in rheumatoid arthritis is long term. […] There are several examples in medicine that give positive immediate effects in disease but are unsuitable for long term use, either due to lack of efficacy, safety or both.
In this double-blinded, single-site study in Norway (ClinicalTrials.gov NCT00667758), 99 patients with active longstanding RA, were randomised to predefined intention-to-treat populations using computer-generated allocation (1:1) in dynamic blocks stratified for sex. Patients were assigned to subcutaneous cetrorelix (n=48) (5 mg days 1-2, 3 mg days 3-5) or placebo (n=51). P1NP was measured on day 10. We investigated serum P1NP between groups, a predefined secondary endpoint. Detailed efficacy and safety data are presented separately.

mice = assay: Mouse study of preventing age related inflammation with cetrorelix; format: in vivo; conditions: 0.5 mg/kg daily with or without gonadal hormone replacement
Protocol: An animal study is conducted with 40 fertile female mice aged approximately 6-20 months in a control group (group 1) receiving placebo, 40 age and sex matched mice receiving a drug that reduces the activity of GnRH (group 2), such as cetrorelix 0.5 mg/kg daily, and 40 age and sex matched mice receiving the same GnRH inhibitor as group 2, but with the additional replacement of gonadal hormone (oestrogen) to age adjusted pre-chosen levels. All mice are followed prospectively, and evaluated for systemic inflammation markers, atherosclerosis, osteoporosis, LDL, and age at death. The same three interventions and assessments are carried out in three groups of male mice with 40 male mice in each group, aged approximately 6-20 months, replacing the gonadal hormone testosterone to pre-chosen levels in group 3. Mice treated with a drug that reduces the activity of GnRH, such as cetrorelix 0.5 mg/kg daily with or without the replacement of gonadal hormone (preferably with) reach a higher age at death compared with mice in the placebo groups. These mice also show less atherosclerosis, osteoporosis and systemic inflammation than mice in the placebo groups.

[7] = system: Patient with Osteoarthritis; assay: Intra-articular cetrorelix in a patient with osteoarthritis; format: in vivo, human; conditions: 1 mg injected into both knees; 2 week post injection
Protocol: • person with osteoarthritis of both knees diagnosed by X-ray 10 years ago. • Has had synovitis secondary to osteoarthritis in both knees for the last month, confirmed by synovitis on ultrasound. • In order to treat the secondary inflammation as a result of their knee osteoarthritis, they are offered intra-articular GnRH antagonist treatment, for example cetrorelix 1 mg injected into both knees. Subcutaneous cetrorelix for injection can be used. • Before and 2 week post injection ultrasound images are taken to show a decrease in synovitis in the knee joint.

[8] = system: patients with active longstanding RA; conditions: 5 days of treatment; Kass et al. 2014; cited from earlier work

## CN(C)CCC=C1c2ccccc2CCc2ccccc21 [amitriptyline]
Patient with Lupus; 25 mg, March 2014
  Effect on pain: no effect
Patient with Lupus; 50 mg, April 2014
  Effect on pain: no effect
Patient with Lupus; 150 mg daily
  Effect on pain: no effect

## COc1c(C)c2c(c(O)c1C/C=C(\C)CCC(=O)OCCN1CCOCC1)C(=O)OC2 [mycophenolate mofetil]
Patient with Lupus
  Reducing the pain in their extremities: not effective
  Side effects: intolerable side effects such as mouth ulcers

## NCC1(CC(=O)O)CCCCC1 [gabapentin]
Patient with Lupus; 100 mg×3 up to 1200 mg×3
  Effect on pain: no effect

## CCN=C(NCC)NCCCC[C@H](NC(=O)[C@H](CC(C)C)NC(=O)[C@@H](CCCCNC(=NCC)NCC)NC(=O)[C@H](Cc1ccc(O)cc1)NC(=O)[C@H](CO)NC(=O)[C@@H](Cc1cccnc1)NC(=O)[C@@H](Cc1ccc(Cl)cc1)NC(=O)[C@@H](Cc1ccc2ccccc2c1)NC(C)=O)C(=O)N1CCC[C@H]1C(=O)N[C@H](C)C(N)=O [ganirelix] (Ac-[d2Nal][dPhe(4-Cl)][d3Pal]SY[d(hArg(Et2))]L[hArg(Et2)]P[dA]-NH2)
Patient with Tendonitis
  Tendonitis of the elbow on ultrasound: decrease
[1]; 0.75 mg s.c. daily, remission, from 5.5
  Disease activity score (DAS): 2.2
[1]; from 27 μ/mL
  Anti-cyclic citrullinated peptide (CCP) antibodies: 14 μ/mL
[1]; from 28 mm
  ESR: 19 mm
[1]; from 113 kIU/L
  Rheumatoid factor: 75 kIU/L
[1]; normalization from 23 mg/L
  CRP: 5 mg/L

## infliximab: anti-TNFα monoclonal antibody
Patients with IBD
  Fecal calprotectin concentration: decreases significantly

## CC(C)C[C@H](CN)CC(=O)O [pregabalin]
Patient with Lupus; up to 150 mg×2
  Effect on pain: no effect

## Enbrel
[2]; treatment initiated May 2013 at 7.6
  Disease activity score (BASDAI): 8.3

## O=P1(N(CCCl)CCCl)NCCCO1 (stereo not drawn) [cyclophosphamide]
[3]
  Digital ulcers, average number: 9 ulcers

## CN(Cc1cnc2nc(N)nc(N)c2n1)c1ccc(C(=O)N[C@@H](CCC(=O)O)C(=O)O)cc1 [methotrexate]
Patient with Lupus
  Reducing the pain in their extremities: not effective
  Side effects: intolerable side effects such as mouth ulcers

## Golilimumab: TNFα inhibitor Golilimumab
[2]; June 2012, 8.9 on initiating in October 2010
  Disease activity score (BASDAI): 6.6
[2]; May 2013, effect had worn off
  Disease activity score (BASDAI): 7.6

## O[C@H]1[C@H](O)[C@@H](O)[C@H](O)[C@@H](O)[C@H]1O [inositol]
[4]
  Median PASI score reduction: 35%
[4]; median pretreatment PASI 4.9
  Median PASI score reduction: 1.7 points

## CC(=O)N[C@H](Cc1ccc2ccccc2c1)C(=O)N[C@H](Cc1ccc(Cl)cc1)C(=O)N[C@H](Cc1cccnc1)C(=O)N[C@@H](CO)C(=O)N[C@@H](Cc1ccc(O)cc1)C(=O)N[C@H](CCCNC(N)=O)C(=O)N[C@@H](CC(C)C)C(=O)N[C@@H](CCCNC(=N)N)C(=O)N1CCC[C@H]1C(=O)N[C@H](C)C(N)=O [cetrorelix] (Ac-[d2Nal][dPhe(4-Cl)][d3Pal]SY[dCit]LRP[dA]-NH2)
[5]; 0.5 then 0.75 mg s.c. daily, from 6.1
  Disease activity score (DAS): 5.5
[5]; from 41 mg/L
  CRP: 18 mg/L
[5]; from 137 kIU/L
  Rheumatoid factor: 111 kIU/L
[5]; normalized from 35 mm
  ESR: 28 mm
[6]
  Disease activity markers and TNF-α (log pg/mL): significant reductions
mice
  Age at death vs placebo groups: higher
  Atherosclerosis vs placebo groups: less
  Osteoporosis vs placebo groups: less
  Systemic inflammation vs placebo groups: less
[7]
  Synovitis in the knee joint on ultrasound: decrease
[8]
  Primary end-point with regard to clinical response: did not meet the primary end-point
  TNFα: possible reduction

## Cn1cnc([N+](=O)[O-])c1Sc1ncnc2nc[nH]c12 [azathioprine]
Patient with Lupus
  Reducing the pain in their extremities: not effective
  Side effects: intolerable side effects such as mouth ulcers
